The source of these data is patent publication US9084546B2, “Co-electrodeposited hydrogel-conducting polymer electrodes for biomedical applications” (The Regents of the University of Michigan, priority 2005, dated 2015).

For series [1], the system named is MCC (mouse primary cortical cultures). Nature of the series: Cytotoxicity dose-response of EDOT monomer with PSS dopant (cell viability). It counts as cell-based. Conditions: MCC exposed to as much as 0.01 M EDOT, 0.02M PSS for as long as 72 h. The method, then:
(§1) Materials and Methods: SH-SY5Y neuroblastoma-derived cells were maintained in Dulbecco's Modified-Eagle's Media (DMEM with glucose, with L-glutamine; Gibco/Invitrogen, Carlsbad, Calif.) supplemented with Penn-Strep mixed antibiotic solution (dilute 1:100 in cell media; Gibco/Invitrogen) and 10% fetal bovine serum (FBS; Gibco/Invitrogen). Mouse primary dissociated cortical cultures (MCC) were prepared from embryonic day 18-20 (E18-20) mice. […]
(§2) Cell Viability Assays: Cell viability was assessed using three assays; the Vybrant Live/Dead Assay (Molecular Probes), the MTT cell viability assay (Chemicon, Temecula, Calif.), and immunocytochemistry (ICC) for the apoptosis associated protease, activated caspase 3 (Cell Signaling Technologies, Beverly, Mass.). For Vybrant Live/Dead assay cell quantity, size, and type of nuclear staining intensity were assessed by fluorescence microscopy using 3 different dyes, Hoechst 33342 (labels all cell nuclei but brighter in nuclei of apoptotic cells), YoPro-3 (labels apoptotic cells) and propidium iodide (PI) (labels cells with compromised membrane; apoptotic & necrotic cells). […]

The subject of the next series is SY5Y cells. Described as above. It counts as cell-based. Conditions: SY5Y cells exposed to as much as 0.01 M EDOT, 0.02M PSS for as long as 72 h. The method, then: as §1, §2

Structures are written as SMILES.

`c1scc2c1OCCO2` [EDOT, 3,4-ethylenedioxythiophene]: the cell viability entry (in series [1]; in the series with SY5Y cells) was “at least 75%” in each case.
